Read-outs that look alike come from different tables or passages of the source.

Two compounds from publication PMC9413491, “A Novel and Cross-Species Active Mammalian INDY (NaCT) Inhibitor Ameliorates Hepatic Steatosis in Mice with Diet-Induced Obesity” (Metabolites, 2022) can be followed below.

Experiment [1] has as its system fatty acid synthesis in HepG2 cells. In words: Fatty acid synthesis assay ([14C] citrate incorporation) in HepG2 cells. Type of experiment: cell-based, human. How it is done:
We performed the fatty acid synthesis assay in HepG2 cells. We seeded cells into black clear-bottom 96-well plates (Corning 3340 cell plate) 75,000/well and incubated at 37 °C. After 16–24 h, we washed the plates once with 100 µL PBS (+CaCl2 +MgCl2) and added 50 µL assay medium ([…] containing 11 mM glucose, 10 mM HEPES, and 1 nM insulin) per well. Then, we applied test substances in assay medium (10 µL, 5% DMSO) and incubated for 20 min at 37 °C. Thereafter, we added 10 µL assay medium containing [14C] citrate (final concentration 50 µM) and PrestoBlue reagent (1× final concentration; Thermo Fisher Scientific, Waltham, MA, USA) and incubated for 180 min (37 °C, 5% CO2). We measured cell viability (ViewLux instrument, Perkin Elmer). We removed medium by vacuum aspiration and washed cells once with 100 µL PBS (+CaCl2 +MgCl2). We lysed cells with 50 µL lysis buffer (0.1 N NaOH, 0.1 % Triton X-100) and sealed plates with Tape Pads and vortexed. For the saponification reaction, we incubated plates for 16–24 h at 70 °C in a humidified environment. Then, we removed seals and added 200 µL 0.1 N HCl to neutralise the pH. We transferred 150 µL from each into corresponding wells of a 96-well Flash plate (Perkin Elmer) and sealed with TopSeal A (Perkin Elmer). We incubated plates for 4 h at 70 °C and for at least 3 h at room temperature in the dark. We measured [14C] radioactivity (microbeta2, Perkin Elmer). For control samples, we applied 50 mM unlabelled citrate or C75 (Sigma-Aldrich, St. Louis, MO, USA, C5490).

A further experiment deals with T1, mouse Nact (Mus musculus, UniProt Q67BT3).
T1 construct: expressed in transfected cells; host or cells: HEK293 (DSMZ), stably transfected, G418 selection
T1 sequence (Q67BT3 1-572): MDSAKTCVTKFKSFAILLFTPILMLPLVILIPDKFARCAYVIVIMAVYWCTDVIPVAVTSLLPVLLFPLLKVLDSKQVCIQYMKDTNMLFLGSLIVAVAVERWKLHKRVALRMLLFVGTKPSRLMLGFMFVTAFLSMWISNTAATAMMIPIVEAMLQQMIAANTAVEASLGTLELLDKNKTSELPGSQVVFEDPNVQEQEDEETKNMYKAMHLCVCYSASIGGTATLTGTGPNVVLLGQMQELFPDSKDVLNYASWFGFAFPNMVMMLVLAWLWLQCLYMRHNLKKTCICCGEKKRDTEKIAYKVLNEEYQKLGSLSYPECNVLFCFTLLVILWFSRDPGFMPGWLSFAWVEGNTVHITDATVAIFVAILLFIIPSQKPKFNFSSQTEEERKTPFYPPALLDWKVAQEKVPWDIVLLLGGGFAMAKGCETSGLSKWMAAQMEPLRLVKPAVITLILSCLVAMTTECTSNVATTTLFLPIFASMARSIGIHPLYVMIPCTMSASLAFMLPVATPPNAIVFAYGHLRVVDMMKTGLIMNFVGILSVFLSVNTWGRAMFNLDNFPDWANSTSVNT
In words: [14C] citrate uptake in HEK293 cells recombinantly expressing mouse Nact. It counts as cell-based. Particulars: HEK293 mouse Nact. The source says: (§1) We determined activity on human NaCT by measuring citrate uptake into HepG2 cells, which endogenously expressed NaCT [37] and for mouse Nact, using HEK293 cells recombinantly expressing mouse Nact (HEK-Nact). We cloned the mouse Slc13a5 cDNA encoding Nact as described previously.
(§2) For radiometric [14C] citrate uptake assays, we used Cytostar-T plates (Perkin Elmer#RPNQ0166, Waltham, MA, USA). For each assay, we seeded 20,000 HepG2 cells per well on collagen coated 384-well Cytostar-T plates or 5000 HEK293 cells per well on ploy-D-lysine coated 384-well Cytostar-T plates. On the following day, we changed culture medium to assay buffer: 120 mM NaCl, 5.4 mM KCl, 0.8 mM MgSO4, 5 mM glucose, 1.8 mM CaCl2, 25 mM Hepes, 25 mM MES, pH 6.5 (human) and pH 7.5 (mouse). We preincubated cells with compounds at 37 °C for 20 min, after which we added [14C] citrate (3 µM for HEK cells and 10 µM for HepG2 cells) and incubated cells for 50 min at 37 °C. After cooling down for 15 min at 4 °C, we measured the counts using a Microbeta2 reader system (Perkin Elmer).

Another experiment concerns the target T2, human NaCT (Homo sapiens, UniProt Q86YT5).
T2 construct: citrate uptake into HepG2 cells, which endogenously expressed NaCT; host or cells: HepG2
In words: [14C] citrate uptake in HepG2 cells endogenously expressing human NaCT. Type of experiment: cell-based. Particulars: HepG2, human NaCT, citrate substrate.
Source text: as §1, §2

T2 sequence (Q86YT5 whole entry): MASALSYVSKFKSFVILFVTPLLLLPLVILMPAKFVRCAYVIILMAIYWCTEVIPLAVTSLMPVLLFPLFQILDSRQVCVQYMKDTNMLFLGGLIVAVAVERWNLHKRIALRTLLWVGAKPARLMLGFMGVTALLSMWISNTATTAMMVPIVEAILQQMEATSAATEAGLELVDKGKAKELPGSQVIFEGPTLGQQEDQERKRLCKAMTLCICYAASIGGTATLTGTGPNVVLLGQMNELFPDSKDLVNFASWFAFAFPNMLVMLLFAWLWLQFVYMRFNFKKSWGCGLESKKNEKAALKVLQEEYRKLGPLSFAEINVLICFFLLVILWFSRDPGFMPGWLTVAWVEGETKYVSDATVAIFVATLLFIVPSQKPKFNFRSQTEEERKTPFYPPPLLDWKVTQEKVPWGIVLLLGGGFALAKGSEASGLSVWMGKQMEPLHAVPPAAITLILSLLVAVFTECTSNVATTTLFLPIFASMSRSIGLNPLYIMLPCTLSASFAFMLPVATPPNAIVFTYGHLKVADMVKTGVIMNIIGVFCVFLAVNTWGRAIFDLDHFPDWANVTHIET

On to `CC(C)(C)c1ccc(CC[C@@](O)(CC(=O)O)C(=O)O)cc1` [PF-06649298, reference compound], for which the IC50 in experiment [1] (HepG2, [14C] citrate incorporation, read-out: IC50 fatty acid synthesis, HepG2) came out at 39000 nM.

`O=C(NCc1ccc(F)cc1)C1CCN(S(=O)(=O)c2cc(Cl)cc(Cl)c2)CC1` [BI01383298, reference compound]: the IC50 is 30 nM in experiment [1] (HepG2, read-out: IC50 HepG2 fatty acid synthesis); over 50000 nM at mouse Nact (read-out: IC50 HEK293 citrate uptake (mouse)); 78 nM on human NaCT. The “Effect on citrate uptake for mouse Nact” value on mouse Nact was “no effects”.
